Patent US20060069132A1, “Azolecarboxamide herbicides” (priority 2004, published 2006)

Tests used:
kochia = assay: Test C pre-/postemergence herbicide test; type: in vivo, Kochia scoparia
Method in brief: (§1)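 Greenhouse-grown plants were evaluated visually 12 to 14 days after treatment, with 100 meaning complete control and 0 no effect. Application was preemergence, or postemergence at 2 to 18 cm.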

rice = assay: Test C flooded paddy test; type: in vivo, Oryza sativa; conditions: for Plant response rating, Rice: 500 g ai/ha, visual rating after 12 to 14 days
Method in brief: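 Postemergence sprays applied to plants 2 to 18 cm tall (1- to 4-leaf stage); paddy species grown to 2-leaf stage under flooding. After 12 to 14 days in greenhouse, visual rating versus untreated controls on 0–100 scale (0 no effect, 100 complete control).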

giant foxtail [1] = assay: Test C pre-/postemergence herbicide test; type: in vivo, Setaria faberi
Method in brief: as §1

redroot pigweed = assay: Test A pre-/postemergence herbicide test; type: in vivo, Amaranthus retroflexus
Method in brief: (§2)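 Plants are held in greenhouse about ten days after treatment, then compared with untreated controls and scored 0 (no effect) to 100 (complete control). Preemergence dosing is a directed soil spray on sown sandy loam; postemergence dosing is spray to runoff at 2–10 cm height.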

large crabgrass = assay: Test A pre-/postemergence herbicide test; type: in vivo, Digitaria sanguinalis
Method in brief: as §2

yellow nutsedge = assay: Test C pre-/postemergence herbicide test; type: in vivo, Cyperus esculentus
Method in brief: as §1

giant foxtail [2] = assay: Test A pre-/postemergence herbicide test; type: in vivo, Setaria faberi
Method in brief: as §2

johnsongrass = assay: Test C pre-/postemergence herbicide test; type: in vivo, Sorghum halepense
Method in brief: as §1

Surinam grass = assay: Test C pre-/postemergence herbicide test; type: in vivo, Urochloa decumbens
Method in brief: as §1

chickweed = assay: Test C postemergence herbicide test; type: in vivo, Stellaria media
Method in brief: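 Weeds and wheat were sprayed after emergence, at a height of 2 to 18 cm (1–4 leaves), and paddy barnyardgrass was flooded and treated at two leaves. Assessment took place 12–14 days later in the greenhouse on a 0-to-100 visual control scale. A dash means no result was obtained.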

wild oat = assay: Test C postemergence herbicide test; type: in vivo, Avenafatua
Experimental: At the same time, plants selected from these crop and weed species and also winter barley (Hordeum vulgare L.), blackgrass (Alopecurus myosuroides Huds.), canarygrass (Phalaris minor Retz.), chickweed (Stellaria media (L.) Vill.), downy bromegrass (Bromus tectorum L.), green foxtail (Setaria viridis (L.) Beauv.), Italian ryegrass (Lolium multiflorum Lam.), wheat (Triticum aestivum L.), wild oat (Avenafatua L.) and windgrass (Apera spica-venti (L.) Beauv.) were treated with postemergence applications of some of the test chemicals formulated in the same manner. Plants ranged in height from 2 to 18 cm (1- to 4-leaf stage) for postemergence treatments. Plant species in the flooded paddy test consisted of rice (Oryza sativa), smallflower umbrella sedge (Cyperus difformis L.), ducksalad (Heteranthera limosa (Sw.) Willd.) and barnyardgrass (Echinochloa crus-galli (L.) Beauv.) grown to the 2-leaf stage for testing. Treated plants and controls were maintained in a greenhouse for 12 to 14 days, after which time all species were compared to controls and visually evaluated. Plant response ratings, summarized in Table C, are based on a scale of 0 to 100 where 0 is no effect and 100 is complete control. A dash (-) response means no test result.

[3] = 125 g ai/ha, scale 0 (no effect) to 100 (complete control), visual, 12 to 14 days, preemergence
[4] = Postemergence, 500 g ai/ha, scale 0 to 100
[5] = Postemergence, 250 g ai/ha, scale 0 to 100, 0 no effect, 100 complete control
[6] = Preemergence, 500 g ai/ha, scale 0 to 100, 0 no effect, 100 complete control
[7] = postemergence, 125 g ai/ha, scale 0 to 100
[8] = postemergence, 62 g ai/ha, scale 0 to 100
[9] = 250 g ai/ha, scale of 0 to 100, 0 is no effect, 100 is complete control
[10] = scale 0 to 100 (0 no effect, 100 complete control)
[11] = Postemergence, 500 g ai/ha, 0 to 100 scale, 0 no effect, 100 complete control
[12] = Postemergence, 2000 g ai/ha, 0 to 100 scale, 0 no effect, 100 complete control
[13] = Preemergence, 500 g ai/ha, visual rating, 0 to 100 scale (0 no effect, 100 complete control)
[14] = Preemergence, 2000 g ai/ha, visual rating, 0 to 100 scale (0 no effect, 100 complete control)
[15] = Postemergence, 500 g ai/ha, scale 0 to 100, 0 no effect, 100 complete control
[16] = 125 g ai/ha, scale 0 to 100 (0 no effect, 100 complete control)
[17] = 62 g ai/ha, preemergence, scale 0 to 100
[18] = 250 g ai/ha, scale 0-100, preemergence
[19] = 500 g ai/ha, scale 0 to 100 (0 no effect, 100 complete control), visual, 12 to 14 days, preemergence

SMILES: CC(=NO)c1cccc(NC(=O)c2cc(C(C)(C)C)nn2CCF)c1 [Compound 115]
- Plant response rating (0 = no effect, 100 = complete control), Kochia (kochia; 62 g ai/ha, preemergence): 100
- Plant response rating, Kochia (kochia; [3]): 100
- Kochia plant response rating (kochia; [4]): 90
- Plant response rating, Kochia (kochia; [5]): 90
- Kochia plant response rating (kochia; [6]): 100
- Plant response rating, Kochia (kochia; [7]): 90
- Plant response rating, Kochia (kochia; [8]): 80
- Rice plant response rating (rice; 62 g ai/ha, scale 0 to 100 (0 no effect, 100 complete control)): 55
- Rice plant response rating (rice; 125 g ai/ha, scale of 0 to 100, 0 is no effect, 100 is complete control): 65
- Rice plant response rating (rice; [9]): 75
- Plant response rating, Rice (rice; [10]): 75
- Plant response rating (0 = no effect, 100 = complete control), Foxtail, Giant (giant foxtail [1]; 62 g ai/ha, preemergence): 40
- Plant response rating, Foxtail, Giant (giant foxtail [1]; [3]): 90
- Plant response rating, Foxtail, Giant (giant foxtail [1]; 250 g ai/ha, scale 0 to 100 (0 no effect, 100 complete control), visual, 12 to 14 days, preemergence): 100
- Foxtail, Giant plant response rating (giant foxtail [1]; [4]): 80
- Plant response rating, Foxtail, Giant (giant foxtail [1]; [5]): 60
- Foxtail, Giant plant response rating (giant foxtail [1]; [6]): 100
- Plant response rating, Foxtail, Giant (giant foxtail [1]; [7]): 40
- Plant response rating, Foxtail, Giant (giant foxtail [1]; [8]): 40
- Pigweed plant response rating (redroot pigweed; [11]): 95
- Plant response rating, Pigweed (redroot pigweed; [12]): 100
- Pigweed plant response rating (redroot pigweed; [13]): 95
- Pigweed plant response rating (redroot pigweed; [14]): 100
- Crabgrass, Large plant response rating (large crabgrass; [11]): 75
- Plant response rating, Crabgrass, Large (large crabgrass; [12]): 80
- Crabgrass, Large plant response rating (large crabgrass; [13]): 100
- Crabgrass, Large plant response rating (large crabgrass; [14]): 100
- Plant response rating (0 = no effect, 100 = complete control), Nutsedge, Yellow (yellow nutsedge; 62 g ai/ha, preemergence): 0
- Plant response rating, Nutsedge, Yellow (yellow nutsedge; [3]): 0
- Nutsedge, Yellow plant response rating (yellow nutsedge; [4]): 30
- Plant response rating, Nutsedge, Yellow (yellow nutsedge; [5]): 30
- Nutsedge, Yellow plant response rating (yellow nutsedge; [6]): 20
- Plant response rating, Nutsedge, Yellow (yellow nutsedge; [7]): 10
- Plant response rating, Nutsedge, Yellow (yellow nutsedge; [8]): 0
- Foxtail, Giant plant response rating (giant foxtail [2]; [11]): 60
- Plant response rating, Foxtail, Giant (giant foxtail [2]; [12]): 80
- Foxtail, Giant plant response rating (giant foxtail [2]; [13]): 50
- Foxtail, Giant plant response rating (giant foxtail [2]; [14]): 80
- Plant response rating (0 = no effect, 100 = complete control), Johnsongrass (johnsongrass; 62 g ai/ha, preemergence): 70
- Plant response rating, Johnsongrass (johnsongrass; [3]): 100
- Johnsongrass plant response rating (johnsongrass; [4]): 100
- Plant response rating, Johnsongrass (johnsongrass; [5]): 80
- Johnsongrass plant response rating (johnsongrass; [6]): 100
- Plant response rating, Johnsongrass (johnsongrass; [7]): 50
- Plant response rating, Johnsongrass (johnsongrass; [8]): 30
- Plant response rating (0 = no effect, 100 = complete control), Surinam Grass (Surinam grass; 62 g ai/ha, preemergence): 20
- Plant response rating, Surinam Grass (Surinam grass; [3]): 40
- Surinam Grass plant response rating (Surinam grass; [4]): 60
- Plant response rating, Surinam Grass (Surinam grass; [5]): 60
- Surinam Grass plant response rating (Surinam grass; [6]): 90
- Plant response rating, Surinam Grass (Surinam grass; [7]): 40
- Plant response rating, Surinam Grass (Surinam grass; [8]): 30
- Chickweed plant response rating (chickweed; [4]): 100
- Plant response rating, Chickweed (chickweed; [5]): 100
- Plant response rating, Chickweed (chickweed; [7]): 100
- Plant response rating, Chickweed (chickweed; [8]): 100

SMILES: CCNC(=O)c1ccc(F)c(NC(=O)c2c3c(nn2CC)C(C)(C)CC3)c1 [Compound 353]
- Plant response rating, Oat, Wild (wild oat; [5]): 40
- Plant response rating, Oat, Wild (wild oat; [15]): 60
- Plant response rating, Oat, Wild (wild oat; [7]): 30
- Plant response rating, Oat, Wild (wild oat; [8]): 10
- Rice plant response rating (rice; 62 g ai/ha, scale 0 to 100): 0
- Rice plant response rating (rice; [16]): 0
- Rice plant response rating (rice; [9]): 20
- Plant response rating, Rice (rice; [10]): 40

SMILES: CCc1nn(C(C)(C)C)nc1C(=O)Nc1cccc(C(=O)N(C)CC)c1 [Compound 384]
- Plant response rating, Oat, Wild (wild oat; [7]): 45
- Plant response rating, Oat, Wild (wild oat; [8]): 35
- Plant response rating, Kochia (kochia; [17]): 90
- Plant response rating (0 = no effect, 100 = complete control), Kochia (kochia; 125 g ai/ha, preemergence): 100
- Plant response rating, Kochia (kochia; [18]): 100
- Rice plant response rating (rice; 62 g ai/ha, scale 0 to 100): 60
- Rice plant response rating (rice; [16]): 65
- Rice plant response rating (rice; [9]): 80
- Plant response rating, Rice (rice; [10]): 80
- Plant response rating, Foxtail, Giant (giant foxtail [1]; [17]): 95
- Plant response rating (0 = no effect, 100 = complete control), Foxtail, Giant (giant foxtail [1]; 125 g ai/ha, preemergence): 100
- Plant response rating, Foxtail, Giant (giant foxtail [1]; [18]): 100
- Plant response rating, Johnsongrass (johnsongrass; [17]): 100
- Plant response rating (0 = no effect, 100 = complete control), Johnsongrass (johnsongrass; 125 g ai/ha, preemergence): 100
- Plant response rating, Johnsongrass (johnsongrass; [18]): 100

SMILES: Cc1nn(C(C)(C)C)nc1C(=O)Nc1cccc(C(=O)N2CC=CC2)c1 [Compound 393]
- Plant response rating, Oat, Wild (wild oat; [7]): 65
- Plant response rating, Oat, Wild (wild oat; [8]): 55
- Plant response rating, Kochia (kochia; [17]): 0
- Plant response rating (0 = no effect, 100 = complete control), Kochia (kochia; 125 g ai/ha, preemergence): 100
- Plant response rating, Kochia (kochia; [18]): 100
- Plant response rating, Kochia (kochia; [19]): 100
- Rice plant response rating (rice; 62 g ai/ha, scale 0 to 100): 45
- Rice plant response rating (rice; [16]): 75
- Rice plant response rating (rice; [9]): 80
- Plant response rating, Rice (rice; [10]): 85
- Plant response rating, Foxtail, Giant (giant foxtail [1]; [17]): 70
- Plant response rating (0 = no effect, 100 = complete control), Foxtail, Giant (giant foxtail [1]; 125 g ai/ha, preemergence): 90
- Plant response rating, Foxtail, Giant (giant foxtail [1]; [18]): 95
- Plant response rating, Foxtail, Giant (giant foxtail [1]; [19]): 100
- Plant response rating, Nutsedge, Yellow (yellow nutsedge; [18]): 50
- Plant response rating, Johnsongrass (johnsongrass; [17]): 95
- Plant response rating (0 = no effect, 100 = complete control), Johnsongrass (johnsongrass; 125 g ai/ha, preemergence): 100
- Plant response rating, Johnsongrass (johnsongrass; [18]): 100
- Plant response rating, Johnsongrass (johnsongrass; [19]): 100

SMILES: C=CCNC(=O)c1cccc(NC(=O)c2nn(C(C)(C)C)nc2CC)c1 [Compound 414]
- Plant response rating, Oat, Wild (wild oat; [15]): 55
- Plant response rating, Oat, Wild (wild oat; [7]): 45
- Plant response rating, Oat, Wild (wild oat; [8]): 35
- Plant response rating, Kochia (kochia; [17]): 60
- Plant response rating (0 = no effect, 100 = complete control), Kochia (kochia; 125 g ai/ha, preemergence): 75
- Plant response rating, Kochia (kochia; [18]): 80
- Plant response rating, Kochia (kochia; [19]): 100
- Plant response rating, Foxtail, Giant (giant foxtail [1]; [17]): 75
- Plant response rating (0 = no effect, 100 = complete control), Foxtail, Giant (giant foxtail [1]; 125 g ai/ha, preemergence): 95
- Plant response rating, Foxtail, Giant (giant foxtail [1]; [18]): 100
- Plant response rating, Foxtail, Giant (giant foxtail [1]; [19]): 100
- Plant response rating, Nutsedge, Yellow (yellow nutsedge; [17]): 0
- Plant response rating (0 = no effect, 100 = complete control), Nutsedge, Yellow (yellow nutsedge; 125 g ai/ha, preemergence): 0
- Plant response rating, Nutsedge, Yellow (yellow nutsedge; [19]): 20
- Plant response rating, Johnsongrass (johnsongrass; [17]): 95
- Plant response rating (0 = no effect, 100 = complete control), Johnsongrass (johnsongrass; 125 g ai/ha, preemergence): 95
- Plant response rating, Johnsongrass (johnsongrass; [18]): 100
- Plant response rating, Johnsongrass (johnsongrass; [19]): 100
- Plant response rating, Surinam Grass (Surinam grass; [17]): 0
- Plant response rating (0 = no effect, 100 = complete control), Surinam Grass (Surinam grass; 125 g ai/ha, preemergence): 80
- Plant response rating, Surinam Grass (Surinam grass; [19]): 100
